Source: ChEMBL document CHEMBL1759870, “Identification, structural properties and chelating capacity of miltipolone as a broad-spectrum inhibitor to cancer cells” (Eur J Med Chem, 2011)
The source made the active and inactive calls.

How the values were obtained:
Type in all cases: functional, cell-based
HeLa [1] = assay: Antiproliferative activity against human HeLa cells at 2 uM after 96 hrs by MTT assay in presence of ferric ion
MCF7 [2] = assay: Antiproliferative activity against human MCF7 cells at 2 uM after 96 hrs by MTT assay in presence of ferric ion
Jurkat [3] = assay: Antiproliferative activity against human Jurkat cells at 2 uM after 96 hrs by MTT assay in presence of ferric ion
HT-1080 [4] = assay: Antiproliferative activity against human HT1080 cells at 2 uM after 96 hrs by MTT assay in presence of ferric ion
A-375 [5] = assay: Antiproliferative activity against human A375 cells at 2 uM after 96 hrs by MTT assay in presence of ferric ion
NCI-N87 [6] = assay: Antiproliferative activity against human NCI-N87 cells at 2 uM after 96 hrs by MTT assay in presence of ferric ion
PANC-1 [7] = assay: Antiproliferative activity against human PANC1 cells at 2 uM after 96 hrs by MTT assay in presence of ferric ion
A549 [8] = assay: Antiproliferative activity against human A549 cells at 2 uM after 96 hrs by MTT assay in presence of cobalt ion
Bel-7402 [9] = assay: Antiproliferative activity against human Bel7402 cells at 2 uM after 96 hrs by MTT assay in presence of cobalt ion
HepG2 [10] = assay: Antiproliferative activity against human HepG2 cells at 2 uM after 96 hrs by MTT assay in presence of cobalt ion
HeLa [11] = assay: Antiproliferative activity against human HeLa cells at 2 uM after 96 hrs by MTT assay in presence of cobalt ion
MCF7 [12] = assay: Antiproliferative activity against human MCF7 cells at 2 uM after 96 hrs by MTT assay in presence of cobalt ion
Jurkat [13] = assay: Antiproliferative activity against human Jurkat cells at 2 uM after 96 hrs by MTT assay in presence of cobalt ion
HT-1080 [14] = assay: Antiproliferative activity against human HT1080 cells at 2 uM after 96 hrs by MTT assay in presence of cobalt ion
A-375 [15] = assay: Antiproliferative activity against human A375 cells at 2 uM after 96 hrs by MTT assay in presence of cobalt ion
NCI-N87 [16] = assay: Antiproliferative activity against human NCI-N87 cells at 2 uM after 96 hrs by MTT assay in presence of cobalt ion
PANC-1 [17] = assay: Antiproliferative activity against human PANC1 cells at 2 uM after 96 hrs by MTT assay in presence of cobalt ion
A549 [18] = assay: Antiproliferative activity against human A549 cells at 2 uM after 96 hrs by MTT assay in presence of zinc ion
Bel-7402 [19] = assay: Antiproliferative activity against human Bel7402 cells at 2 uM after 96 hrs by MTT assay in presence of zinc ion
HepG2 [20] = assay: Antiproliferative activity against human HepG2 cells at 2 uM after 96 hrs by MTT assay in presence of zinc ion
HeLa [21] = assay: Antiproliferative activity against human HeLa cells at 2 uM after 96 hrs by MTT assay in presence of zinc ion
MCF7 [22] = assay: Antiproliferative activity against human MCF7 cells at 2 uM after 96 hrs by MTT assay in presence of zinc ion
Jurkat [23] = assay: Antiproliferative activity against human Jurkat cells at 2 uM after 96 hrs by MTT assay in presence of zinc ion
HT-1080 [24] = assay: Antiproliferative activity against human HT1080 cells at 2 uM after 96 hrs by MTT assay in presence of zinc ion
A-375 [25] = assay: Antiproliferative activity against human A375 cells at 2 uM after 96 hrs by MTT assay in presence of zinc ion
NCI-N87 [26] = assay: Antiproliferative activity against human NCI-N87 cells at 2 uM after 96 hrs by MTT assay in presence of zinc ion
PANC-1 [27] = assay: Antiproliferative activity against human PANC1 cells at 2 uM after 96 hrs by MTT assay in presence of zinc ion
A549 [28] = assay: Antiproliferative activity against human A549 cells at 2 uM after 96 hrs by MTT assay in presence of manganese ion
Bel-7402 [29] = assay: Antiproliferative activity against human Bel7402 cells at 2 uM after 96 hrs by MTT assay in presence of manganese ion
HepG2 [30] = assay: Antiproliferative activity against human HepG2 cells at 2 uM after 96 hrs by MTT assay in presence of manganese ion
HeLa [31] = assay: Antiproliferative activity against human HeLa cells at 2 uM after 96 hrs by MTT assay in presence of manganese ion
MCF7 [32] = assay: Antiproliferative activity against human MCF7 cells at 2 uM after 96 hrs by MTT assay in presence of manganese ion
Jurkat [33] = assay: Antiproliferative activity against human Jurkat cells at 2 uM after 96 hrs by MTT assay in presence of manganese ion
HT-1080 [34] = assay: Antiproliferative activity against human HT1080 cells at 2 uM after 96 hrs by MTT assay in presence of manganese ion
A-375 [35] = assay: Antiproliferative activity against human A375 cells at 2 uM after 96 hrs by MTT assay in presence of manganese ion
NCI-N87 [36] = assay: Antiproliferative activity against human NCI-N87 cells at 2 uM after 96 hrs by MTT assay in presence of manganese ion
PANC-1 [37] = assay: Antiproliferative activity against human PANC1 cells at 2 uM after 96 hrs by MTT assay in presence of manganese ion
Bel-7402 [38] = assay: Antiproliferative activity against human Bel7402 cells at 2 uM after 96 hrs by MTT assay in presence of 1 uM of ferrous ion

Measured: Activity

Cc1cc2c(cc(O)c1=O)[C@@]13CCCC(C)(C)[C@@H]1C[C@@H]2OC3 [MILTIPOLONE]
active: HeLa [1] | MCF7 [2] | Jurkat [3] | HT-1080 [4] | A-375 [5] | NCI-N87 [6] | PANC-1 [7] | A549 [8] | Bel-7402 [9] | HepG2 [10] | HeLa [11] | MCF7 [12] | Jurkat [13] | HT-1080 [14] | A-375 [15] | NCI-N87 [16] | PANC-1 [17] | A549 [18] | Bel-7402 [19] | HepG2 [20] | HeLa [21] | MCF7 [22] | Jurkat [23] | HT-1080 [24] | A-375 [25] | NCI-N87 [26] | PANC-1 [27] | A549 [28] | Bel-7402 [29] | HepG2 [30] | HeLa [31] | MCF7 [32] | Jurkat [33] | HT-1080 [34] | A-375 [35] | NCI-N87 [36] | PANC-1 [37] | Bel-7402 [38]
